Columns and labels:
[1] = biological target: T1, histamine H2 -receptors (isolated guinea pig right atria) (Cavia porcellus, UniProt P47747); assay: Histamine H2-receptor antagonism, isolated guinea pig atria assay; type: cell-based, guinea pig (male Hartley strain); settings: for Histamine ED50 With 95% Confidence Limits: histamine ED50 in presence of test compound 3 × 10^-5 M, 30 minute incubation; for Concentration-Response Curve Displacement Factor / Activity Ratio Relative to Cimetidine: test compound 3 × 10^-5 M; for Activity Ratio Relative to Cimetidine: cimetidine = 1.0
T1 construct: The spontaneously beating right atrium was dissected free from other tissues; from tissue; host or cells: isolated spontaneously beating right atrium of male Hartley guinea pigs
Experimental: Subsequent investigations by Hughes and Coret, Proc. Soc. […] Black et al., Agents and Actions, 3, 133 (1973) and Brimblecombe et al., Fed. […] The present comparative studies were carried out using a modification of the procedure reported by Reinhardt et al., Agents and Actions, 4, 217 (1974).
Male Hartley strain guinea pigs (350-450 gm.) were sacrificed by a blow on the head. The heart was excised and placed in a Petri dish of oxygenated (95% O2, 5% CO2) modified Krebs solution (g./liter: NaCl 6.6, KCl 0.35, MgSO4.7 H2 O 0.295, KH2 PO4 0.162, CaCl2 0.238, NaHCO3 2.1 and dextrose 2.09). The spontaneously beating right atrium was dissected free from other tissues and a silk thread (4-0) attached to each end. The atrium was suspended in a 20 ml. muscle chamber containing oxygenated modified Krebs solution maintained at 32° C. Atrial contractions were recorded isometrically by means of a Grass FT 0.03 force displacement transducer and recordings of contractile force and rate were made with a Beckman RP Dynograph.
A resting tension of 1 g. was applied to the atrium and it was allowed to equilibrate for 1 hour.
Concentration-response curve displacement factors were calculated as follows: [formula] […] [formula]

gastric acid output [2] = assay: Gastric antisecretory activity in the gastric fistula dog; type: in vivo, beagle dogs; settings: for Percent Inhibition Acid Output: histamine infusion
Experimental: Thomas type [Thomas, J. E., Proc. Soc. Exp. Biol. Med., 46, 260 ([…])] stainless steel cannulae are inserted into the stomachs of beagle dogs (10-12 kg.) just orad to the pyloric gland area near the greater curvature to provide a chronic gastric fistula. Animals are allowed to recover for at least two months before any testing is done. Dogs are fasted overnight (~18 hours) with water ad lib prior to each experiment. The dogs are placed in a sling and an eight inch inside needle catheter (C. R. Baird, Inc.) with a two inch 17 gauge needle is inserted into a leg vein for purposes of drug administration. Gastric secretions are collected every 15 minutes by gravity drainage from the opened cannula. […] A modification of the procedure described by Grossman and Konturek, Gastroenterology, 66, 517 (1974) was followed. […] Each 15 minute sample of gastric juice is measured to the nearest 0.5 ml. and titratable acidity against 0.02 N NaOH (endpoint pH 7.0) is measured with an Autoburet and pH meter (radiometer). The percent inhibition of acid output is calculated as described in the pylorus ligated rat procedure.

gastric acid output [3] = assay: Gastric antisecretory activity in the two hour pylorus ligated (Shay) rat; type: in vivo, rat (male Long Evans); settings: for Percent Inhibition Acid Output / ED50: 2 h; for ED50: two hour pylorus ligated rat; for Potency Ratio: relative to cimetidine = 1.00
Excerpt: The pyloric ligation procedure in the rat was designed by Shay et al., Gastroenterology, 5, 53 (1945) for the study of perforating gastric ulcers; however, as the method became known, it was also employed as a means of studying rat gastric secretion, Shay et al., Gastroenterology, 26, 906 (1954), Brodie, D. A., Am. J. Dig. Dis., 11, 231 (1966). A modification of this procedure is presently used to evaluate compounds for gastric antisecretory activity.
Male Long Evans rats, 280-300 gm., are used. The aimals are placed in individual cages and fasted for 24 hours with free access to water. Under ther anesthesia, the stomach is reached through a midline incision, and a cotton-thread ligature is placed around the pylorus. […] All compounds are solubilized with one equivalent of HCl and brought to the proper volume with water. The animals are returned to their cages from which the water bottles have been removed and two hours later are sacrificed with ether. The stomach is removed and the two hour gastric collection is drained into a graduated test tube for volume determination. Titratable acidity is measured by titrating a one ml. sample to pH 7.0 with 0.02 N NaOH, using an Autoburet and an electrometric pH meter (Radiometer). Titratable acid output is calculated in microequivalents by multiplying the volume in milliliters by the acid concentration in milliequivalents per liter. The percent inhibition of acid output is calculated as follows [formula]

gastric secretion = settings: cited from earlier work
peptic ulcer disease = settings: clinical evaluation; cited from earlier work
histamine H2 -receptors = settings: isolated guinea pig right atria; cited from earlier work
H2 receptors = settings: cited from earlier work
[4] = clinical; cited from earlier work

T1 sequence (P47747 whole entry): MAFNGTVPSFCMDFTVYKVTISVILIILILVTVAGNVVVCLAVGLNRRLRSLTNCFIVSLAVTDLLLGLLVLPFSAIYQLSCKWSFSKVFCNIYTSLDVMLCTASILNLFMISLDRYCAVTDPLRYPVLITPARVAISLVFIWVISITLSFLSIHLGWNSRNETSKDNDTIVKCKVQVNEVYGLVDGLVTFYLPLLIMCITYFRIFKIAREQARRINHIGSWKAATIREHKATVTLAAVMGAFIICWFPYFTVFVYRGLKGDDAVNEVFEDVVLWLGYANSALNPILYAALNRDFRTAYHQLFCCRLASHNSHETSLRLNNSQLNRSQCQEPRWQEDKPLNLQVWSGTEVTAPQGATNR

C#CCNC(=C[N+](=O)[O-])NCCSCc1ccc(CN(C)C)o1 [BL-5966, 1-Nitro-2-(2-propynylamino)-2-{2-[(5-dimethylaminomethyl-2-furyl)methylthio]ethylamino}ethylene]
Histamine ED50 With 95% Confidence Limits [1]: 32.70 µg/mL
potency as histamine H2 receptor antagonist (in words) ([1]; isolated guinea pig atria): more potent than either cimetidine or Compound XVI
activity relative to Compound XVI ([1]; isolated guinea pig right atria, vs Compound XVI): about 4.80 times
Concentration-Response Curve Displacement Factor [1]: 181.67
Percent Inhibition Acid Output (gastric acid output [2]; 0.0469 μ Mole/kg iv): 32%
Percent Inhibition Acid Output (gastric acid output [2]; 0.0938 μ Mole/kg iv): 47%
Percent Inhibition Acid Output (gastric acid output [2]; 0.1875 μ Mole/kg iv): 46%
Percent Inhibition Acid Output (gastric acid output [2]; 0.375 μ Mole/kg iv): 90%
ED50 (gastric acid output [2]; Canis lupus familiaris, iv, gastric fistula dog): 0.12 µmol/kg
potency as inhibitor of gastric secretion (in words) (gastric acid output [2]; dogs): more potent than either cimetidine or Compound XVI
Potency Ratio (gastric acid output [2]; iv, relative to cimetidine = 1.0): 11.5 times
Percent Inhibition Acid Output (gastric acid output [3]; 0.625 μ Mole/kg ip): 27%
Percent Inhibition Acid Output (gastric acid output [3]; 1.25 μ Mole/kg ip): 36%
Percent Inhibition Acid Output (gastric acid output [3]; 2.5 μ Mole/kg ip): 59%
Percent Inhibition Acid Output (gastric acid output [3]; 5 μ Mole/kg ip): 83%
ED50 (gastric acid output [3]; ip): 1.8 µmol/kg
Potency Ratio (gastric acid output [3]; ip): 5.81 times
potency relative to Compound XVI (gastric acid output [3]; ip, vs Compound XVI): 2.52 times
potency as inhibitor of gastric secretion (in words) (gastric acid output [3]; rats): more potent than either cimetidine or Compound XVI

C#CCNC(=NCCSCc1ccc(CN(C)C)o1)NC#N [BL-5993, N-Cyano-N'-(2-propyn-1-yl)-N"-{2-[(5-dimethylaminomethyl-2-furyl)methylthio]ethyl}guanidine]
Histamine ED50 With 95% Confidence Limits [1]: 4.28 µg/mL
Concentration-Response Curve Displacement Factor [1]: 23.78
Activity Ratio Relative to Cimetidine [1]: 0.94 times
Activity Ratio Relative to Cimetidine ([1]; listed as BL-5933): about 0.94 times
Percent Inhibition Acid Output (gastric acid output [3]; 10 μ Mole/kg ip): 34%
Percent Inhibition Acid Output (gastric acid output [3]; 20 μ Mole/kg ip): 71%
ED50 (gastric acid output [3]; ip): 12.5 µmol/kg
Potency Ratio (gastric acid output [3]; ip): 0.83 times

CNC(=S)NCCCCc1cnc[nH]1 [Burimamide]
inhibition of gastric secretion (gastric secretion; animals and man): inhibits gastric secretion in animals and man
clinical effectiveness (peptic ulcer disease): first clinically effective H2 -receptor antagonist
H2-receptor mediated effect in atria (in words) (histamine H2 -receptors): competitive antagonist of these receptors

CN=C(NC#N)NCCSCc1nc[nH]c1C [Cimetidine]
Histamine ED50 With 95% Confidence Limits [1]: 4.80 µg/mL
Concentration-Response Curve Displacement Factor [1]: 25.26
clinical effectiveness (peptic ulcer disease): effective therapeutic agent in the treatment of peptic ulcer disease
H2 antagonist potency/effectiveness (in words) (H2 receptors): as effective an H2 antagonist as metiamide
toxicity (agranulocytosis) [4]: without producing agranulocytosis

CNC(=C[N+](=O)[O-])NCCSCc1ccc(CN(C)C)o1 [Compound XVI, reference compound]
Histamine ED50 With 95% Confidence Limits [1]: 11.97 µg/mL
Concentration-Response Curve Displacement Factor [1]: 38.61
Percent Inhibition Acid Output (gastric acid output [3]; 5 μ Mole/kg ip): 42%
Percent Inhibition Acid Output (gastric acid output [3]; 10 μ Mole/kg ip): 77%
Percent Inhibition Acid Output (gastric acid output [3]; 20 μ Mole/kg ip): 89%
ED50 (gastric acid output [3]; ip): 4.52 µmol/kg
Potency Ratio (gastric acid output [3]; ip): 2.31 times

NCCc1c[nH]cn1 [Histamine]
H2-receptor mediated effect in atria (in words) (histamine H2 -receptors): concentration-related increases in the contractile rate

CNC(=S)NCCSCc1nc[nH]c1C [Metiamide]
oral activity (gastric secretion; man, oral): orally active in man
H2 antagonist potency/effectiveness (in words) (H2 receptors): more potent than burimamide
toxicity (agranulocytosis) [4]: toxicity (agranulocytosis)

— US4203909A, “Furan compounds” (Bristol-Myers Company, priority 1978, dated 1980)
